Cl.N/N=C(\N)NN
solubility (mole fraction) (in THF, 273.15 K): 1.96e-05 | solubility (mole fraction) (in THF, 278.15 K): 2.74e-05 | solubility (mole fraction) (in THF, 283.15 K): 3.7e-05 | solubility (mole fraction) (in THF, 288.15 K): 5.17e-05 | solubility (mole fraction) (in THF, 293.15 K): 6.85e-05 | solubility (mole fraction) (in THF, 298.15 K): 9.12e-05 | solubility (mole fraction) (in THF, 303.15 K): 0.000119 | solubility (mole fraction) (in THF, 308.15 K): 0.000154 | solubility (mole fraction) (in THF, 313.15 K): 0.000209 | solubility (mole fraction) (in THF, 318.15 K): 0.000265 | solubility (mole fraction) (in THF, 323.15 K): 0.000333 | solubility (mole fraction) (in acetonitrile, 273.15 K): 7.35e-06 | solubility (mole fraction) (in acetonitrile, 278.15 K): 1.19e-05 | solubility (mole fraction) (in acetonitrile, 283.15 K): 1.4e-05 | solubility (mole fraction) (in acetonitrile, 288.15 K): 2.09e-05 | solubility (mole fraction) (in acetonitrile, 293.15 K): 2.72e-05 | solubility (mole fraction) (in acetonitrile, 298.15 K): 3.41e-05 | solubility (mole fraction) (in acetonitrile, 303.15 K): 5.02e-05 | solubility (mole fraction) (in acetonitrile, 308.15 K): 6.91e-05 | solubility (mole fraction) (in acetonitrile, 313.15 K): 8.3e-05 | solubility (mole fraction) (in acetonitrile, 318.15 K): 9.96e-05 | solubility (mole fraction) (in acetonitrile, 323.15 K): 0.000142 | solubility (mole fraction) (in ethanol, 273.15 K): 0.000112 | solubility (mole fraction) (in ethanol, 278.15 K): 0.000156 | solubility (mole fraction) (in ethanol, 283.15 K): 0.000207 | solubility (mole fraction) (in ethanol, 288.15 K): 0.0003 | solubility (mole fraction) (in ethanol, 293.15 K): 0.000373 | solubility (mole fraction) (in ethanol, 298.15 K): 0.00054 | solubility (mole fraction) (in ethanol, 303.15 K): 0.000666 | solubility (mole fraction) (in ethanol, 308.15 K): 0.000904 | solubility (mole fraction) (in ethanol, 313.15 K): 0.00119 | solubility (mole fraction) (in ethanol, 318.15 K): 0.00158 | solubility (mole fraction) (in ethanol, 323.15 K): 0.002 | solubility (mole fraction) (in ethyl acetate, 273.15 K): 1.56e-05 | solubility (mole fraction) (in ethyl acetate, 278.15 K): 2.2e-05 | solubility (mole fraction) (in ethyl acetate, 283.15 K): 3.03e-05 | solubility (mole fraction) (in ethyl acetate, 288.15 K): 4.16e-05 | solubility (mole fraction) (in ethyl acetate, 293.15 K): 5.57e-05 | solubility (mole fraction) (in ethyl acetate, 298.15 K): 7.51e-05 | solubility (mole fraction) (in ethyl acetate, 303.15 K): 0.000101 | solubility (mole fraction) (in ethyl acetate, 308.15 K): 0.00013 | solubility (mole fraction) (in ethyl acetate, 313.15 K): 0.000169 | solubility (mole fraction) (in ethyl acetate, 318.15 K): 0.000217 | solubility (mole fraction) (in ethyl acetate, 323.15 K): 0.000281 | solubility (mole fraction) (in isobutanol, 273.15 K): 2.22e-05 | solubility (mole fraction) (in isobutanol, 278.15 K): 3.04e-05 | solubility (mole fraction) (in isobutanol, 283.15 K): 4.2e-05 | solubility (mole fraction) (in isobutanol, 288.15 K): 5.88e-05 | solubility (mole fraction) (in isobutanol, 293.15 K): 7.77e-05 | solubility (mole fraction) (in isobutanol, 298.15 K): 0.000105 | solubility (mole fraction) (in isobutanol, 303.15 K): 0.000134 | solubility (mole fraction) (in isobutanol, 308.15 K): 0.000177 | solubility (mole fraction) (in isobutanol, 313.15 K): 0.000233 | solubility (mole fraction) (in isobutanol, 318.15 K): 0.000301 | solubility (mole fraction) (in isobutanol, 323.15 K): 0.000389 | solubility (mole fraction) (in isopropanol, 273.15 K): 2.41e-05 | solubility (mole fraction) (in isopropanol, 278.15 K): 3.39e-05 | solubility (mole fraction) (in isopropanol, 283.15 K): 4.68e-05 | solubility (mole fraction) (in isopropanol, 288.15 K): 6.35e-05 | solubility (mole fraction) (in isopropanol, 293.15 K): 8.43e-05 | solubility (mole fraction) (in isopropanol, 298.15 K): 0.000112 | solubility (mole fraction) (in isopropanol, 303.15 K): 0.000148 | solubility (mole fraction) (in isopropanol, 308.15 K): 0.000192 | solubility (mole fraction) (in isopropanol, 313.15 K): 0.000248 | solubility (mole fraction) (in isopropanol, 318.15 K): 0.000326 | solubility (mole fraction) (in isopropanol, 323.15 K): 0.000417 | solubility (mole fraction) (in methanol, 273.15 K): 0.00218 | solubility (mole fraction) (in methanol, 278.15 K): 0.00272 | solubility (mole fraction) (in methanol, 283.15 K): 0.00338 | solubility (mole fraction) (in methanol, 288.15 K): 0.00436 | solubility (mole fraction) (in methanol, 293.15 K): 0.00522 | solubility (mole fraction) (in methanol, 298.15 K): 0.00664 | solubility (mole fraction) (in methanol, 303.15 K): 0.00802 | solubility (mole fraction) (in methanol, 308.15 K): 0.00971 | solubility (mole fraction) (in methanol, 313.15 K): 0.0118 | solubility (mole fraction) (in methanol, 318.15 K): 0.0144 | solubility (mole fraction) (in methanol, 323.15 K): 0.0175 | solubility (mole fraction) (in n-butanol, 273.15 K): 3.27e-05 | solubility (mole fraction) (in n-butanol, 278.15 K): 4.64e-05 | solubility (mole fraction) (in n-butanol, 283.15 K): 6.17e-05 | solubility (mole fraction) (in n-butanol, 288.15 K): 8.36e-05 | solubility (mole fraction) (in n-butanol, 293.15 K): 0.000111 | solubility (mole fraction) (in n-butanol, 298.15 K): 0.000147 | solubility (mole fraction) (in n-butanol, 303.15 K): 0.000197 | solubility (mole fraction) (in n-butanol, 308.15 K): 0.000259 | solubility (mole fraction) (in n-butanol, 313.15 K): 0.000345 | solubility (mole fraction) (in n-butanol, 318.15 K): 0.000432 | solubility (mole fraction) (in n-butanol, 323.15 K): 0.000549 | solubility (mole fraction) (in n-heptane, 273.15 K): 1.74e-05 | solubility (mole fraction) (in n-heptane, 278.15 K): 2.52e-05 | solubility (mole fraction) (in n-heptane, 283.15 K): 3.41e-05 | solubility (mole fraction) (in n-heptane, 288.15 K): 4.7e-05 | solubility (mole fraction) (in n-heptane, 293.15 K): 6.36e-05 | solubility (mole fraction) (in n-heptane, 298.15 K): 8.63e-05 | solubility (mole fraction) (in n-heptane, 303.15 K): 0.000119 | solubility (mole fraction) (in n-heptane, 308.15 K): 0.000153 | solubility (mole fraction) (in n-heptane, 313.15 K): 0.000204 | solubility (mole fraction) (in n-heptane, 318.15 K): 0.000264 | solubility (mole fraction) (in n-heptane, 323.15 K): 0.000334 | solubility (mole fraction) (in n-hexane, 273.15 K): 1.77e-05 | solubility (mole fraction) (in n-hexane, 278.15 K): 2.5e-05 | solubility (mole fraction) (in n-hexane, 283.15 K): 3.47e-05 | solubility (mole fraction) (in n-hexane, 288.15 K): 4.69e-05 | solubility (mole fraction) (in n-hexane, 293.15 K): 6.58e-05 | solubility (mole fraction) (in n-hexane, 298.15 K): 8.84e-05 | solubility (mole fraction) (in n-hexane, 303.15 K): 0.000115 | solubility (mole fraction) (in n-hexane, 308.15 K): 0.000154 | solubility (mole fraction) (in n-hexane, 313.15 K): 0.000205 | solubility (mole fraction) (in n-hexane, 318.15 K): 0.000261 | solubility (mole fraction) (in n-hexane, 323.15 K): 0.00035 | solubility (mole fraction) (in n-propanol, 273.15 K): 4.25e-05 | solubility (mole fraction) (in n-propanol, 278.15 K): 5.9e-05 | solubility (mole fraction) (in n-propanol, 283.15 K): 7.94e-05 | solubility (mole fraction) (in n-propanol, 288.15 K): 0.00011 | solubility (mole fraction) (in n-propanol, 293.15 K): 0.000145 | solubility (mole fraction) (in n-propanol, 298.15 K): 0.000189 | solubility (mole fraction) (in n-propanol, 303.15 K): 0.000253 | solubility (mole fraction) (in n-propanol, 308.15 K): 0.000319 | solubility (mole fraction) (in n-propanol, 313.15 K): 0.000412 | solubility (mole fraction) (in n-propanol, 318.15 K): 0.000539 | solubility (mole fraction) (in n-propanol, 323.15 K): 0.000675 | solubility (mole fraction) (in water, 273.15 K): 0.0395 | solubility (mole fraction) (in water, 278.15 K): 0.0481 | solubility (mole fraction) (in water, 283.15 K): 0.0546 | solubility (mole fraction) (in water, 288.15 K): 0.0664 | solubility (mole fraction) (in water, 293.15 K): 0.0778 | solubility (mole fraction) (in water, 298.15 K): 0.0879 | solubility (mole fraction) (in water, 303.15 K): 0.101 | solubility (mole fraction) (in water, 308.15 K): 0.112 | solubility (mole fraction) (in water, 313.15 K): 0.127 | solubility (mole fraction) (in water, 318.15 K): 0.145 | solubility (mole fraction) (in water, 323.15 K): 0.161

From BigSolDB 2.1
